Measurements from the supplement of paper PMC10307832.

Experiments:
Experiment in all cases: relative viability (nuclei count vs DMSO), 5 days (fraction); higher = more cells survive
[1] = tested on: EKVX
In short: (§1)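 Relative viability is defined as nuclei in treated wells over nuclei in vehicle wells. Duplicate plates were run and medians reported. Lung cancer cell lines in 1536-well plates were dosed by pin tool one day after seeding, with one drug or with a fixed anchor-drug dose plus five library-drug doses (not always all listed) in √10 steps, and nuclei were counted after 5 days.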

[2] = tested on: EMC-BAC-2
In short: as §1

[3] = tested on: H3255
In short: as §1

[4] = tested on: HARA
In short: as §1

[5] = tested on: HCC-15
In short: as §1

[6] = tested on: HCC-827
In short: as §1

[7] = tested on: LC-2-ad
In short: as §1

[8] = tested on: LCLC-97TM1
In short: as §1

[9] = tested on: LU99A
In short: as §1

[10] = tested on: NCI-H1437
In short: as §1

[11] = tested on: NCI-H1792
In short: as §1

[12] = tested on: NCI-H1793
In short: as §1

[13] = tested on: NCI-H1915
In short: as §1

[14] = tested on: NCI-H1944
In short: as §1

[15] = tested on: NCI-H2126
In short: as §1

[16] = tested on: NCI-H23
In short: as §1

[17] = tested on: NCI-H322M
In short: as §1

[18] = tested on: NCI-H460
In short: as §1

[19] = tested on: NCI-H661
In short: as §1

[20] = tested on: PC-3 [JPC-3]
In short: as §1

[21] = tested on: SK-LU-1
In short: as §1

## O=C(O)CCCCC(CCSCc1ccccc1)SCc1ccccc1 (centres undefined) [CPI-613] + CS(=O)(=O)CCNCc1ccc(-c2ccc3ncnc(Nc4ccc(OCc5cccc(F)c5)c(Cl)c4)c3c2)o1 [Lapatinib] (partner 2 µM)
[1]; first compound 5 µM
  relative viability: 0.186
[1]; first compound 15.81 µM
  relative viability: 0.208
[1]; first compound 50 µM
  relative viability: 0.218
[1]; first compound 158.11 µM
  relative viability: 0.193
[1]; first compound 500 µM
  relative viability: 0.206
[2]; first compound 5 µM
  relative viability: 0.827
[2]; first compound 15.81 µM
  relative viability: 0.86
[2]; first compound 50 µM
  relative viability: 0.847
[2]; first compound 158.11 µM
  relative viability: 0.954
[2]; first compound 500 µM
  relative viability: 0.0887
[3]; first compound 5 µM
  relative viability: 0.234
[3]; first compound 15.81 µM
  relative viability: 0.253
[3]; first compound 50 µM
  relative viability: 0.291
[3]; first compound 158.11 µM
  relative viability: 0.256
[3]; first compound 500 µM
  relative viability: 0.25
[4]; first compound 5 µM
  relative viability: 0.702
[4]; first compound 15.81 µM
  relative viability: 0.678
[4]; first compound 50 µM
  relative viability: 0.792
[4]; first compound 158.11 µM
  relative viability: 0.521
[4]; first compound 500 µM
  relative viability: 0.0307
[5]; first compound 5 µM
  relative viability: 0.785
[5]; first compound 15.81 µM
  relative viability: 0.801
[5]; first compound 50 µM
  relative viability: 0.682
[5]; first compound 158.11 µM
  relative viability: 0.599
[5]; first compound 500 µM
  relative viability: 0.285
[6]; first compound 5 µM
  relative viability: 0.212
[6]; first compound 15.81 µM
  relative viability: 0.181
[6]; first compound 50 µM
  relative viability: 0.196
[6]; first compound 158.11 µM
  relative viability: 0.173
[6]; first compound 500 µM
  relative viability: 0.0605
[7]; first compound 5 µM
  relative viability: 0.746
[7]; first compound 15.81 µM
  relative viability: 0.859
[7]; first compound 50 µM
  relative viability: 0.868
[7]; first compound 158.11 µM
  relative viability: 0.255
[7]; first compound 500 µM
  relative viability: 0.0059
[8]; first compound 5 µM
  relative viability: 1.19
[8]; first compound 15.81 µM
  relative viability: 0.906
[8]; first compound 50 µM
  relative viability: 1.07
[8]; first compound 158.11 µM
  relative viability: 1.01
[8]; first compound 500 µM
  relative viability: 0.0553
[9]; first compound 5 µM
  relative viability: 0.937
[9]; first compound 15.81 µM
  relative viability: 0.918
[9]; first compound 50 µM
  relative viability: 0.887
[9]; first compound 158.11 µM
  relative viability: 0.608
[9]; first compound 500 µM
  relative viability: 0.0424
[10]; first compound 5 µM
  relative viability: 0.772
[10]; first compound 15.81 µM
  relative viability: 0.685
[10]; first compound 50 µM
  relative viability: 0.746
[10]; first compound 158.11 µM
  relative viability: 0.185
[10]; first compound 500 µM
  relative viability: 0.0285
[11]; first compound 5 µM
  relative viability: 0.841
[11]; first compound 15.81 µM
  relative viability: 0.846
[11]; first compound 50 µM
  relative viability: 0.838
[11]; first compound 158.11 µM
  relative viability: 0.72
[11]; first compound 500 µM
  relative viability: 0.9
[12]; first compound 5 µM
  relative viability: 0.683
[12]; first compound 50 µM
  relative viability: 0.732
[12]; first compound 158.11 µM
  relative viability: 0.306
[12]; first compound 500 µM
  relative viability: 0.0696
[13]; first compound 5 µM
  relative viability: 0.948
[13]; first compound 15.81 µM
  relative viability: 1.02
[13]; first compound 50 µM
  relative viability: 0.948
[13]; first compound 158.11 µM
  relative viability: 0.873
[13]; first compound 500 µM
  relative viability: 0.832
[14]; first compound 5 µM
  relative viability: 0.818
[14]; first compound 15.81 µM
  relative viability: 0.725
[14]; first compound 50 µM
  relative viability: 0.753
[14]; first compound 158.11 µM
  relative viability: 0.77
[14]; first compound 500 µM
  relative viability: 0.632
[15]; first compound 5 µM
  relative viability: 0.723
[15]; first compound 15.81 µM
  relative viability: 0.754
[15]; first compound 50 µM
  relative viability: 0.758
[15]; first compound 158.11 µM
  relative viability: 0.612
[15]; first compound 500 µM
  relative viability: 0.738
[16]; first compound 5 µM
  relative viability: 0.95
[16]; first compound 15.81 µM
  relative viability: 0.812
[16]; first compound 50 µM
  relative viability: 0.873
[16]; first compound 158.11 µM
  relative viability: 0.261
[16]; first compound 500 µM
  relative viability: 0.0192
[17]; first compound 5 µM
  relative viability: 0.577
[17]; first compound 15.81 µM
  relative viability: 0.485
[17]; first compound 50 µM
  relative viability: 0.572
[17]; first compound 158.11 µM
  relative viability: 0.552
[17]; first compound 500 µM
  relative viability: 0.707
[18]; first compound 5 µM
  relative viability: 0.87
[18]; first compound 15.81 µM
  relative viability: 0.853
[18]; first compound 50 µM
  relative viability: 0.838
[18]; first compound 158.11 µM
  relative viability: 0.243
[18]; first compound 500 µM
  relative viability: 0.0072
[19]; first compound 5 µM
  relative viability: 0.419
[19]; first compound 15.81 µM
  relative viability: 0.367
[19]; first compound 50 µM
  relative viability: 0.581
[19]; first compound 158.11 µM
  relative viability: 0.49
[19]; first compound 500 µM
  relative viability: 0.576
[20]; first compound 5 µM
  relative viability: 0.493
[20]; first compound 15.81 µM
  relative viability: 0.439
[20]; first compound 50 µM
  relative viability: 0.425
[20]; first compound 158.11 µM
  relative viability: 0.415
[20]; first compound 500 µM
  relative viability: 0.407
[21]; first compound 5 µM
  relative viability: 0.818
[21]; first compound 15.81 µM
  relative viability: 0.692
[21]; first compound 50 µM
  relative viability: 0.752
[21]; first compound 158.11 µM
  relative viability: 0.587
[21]; first compound 500 µM
  relative viability: 0.379
